In ChEMBL document CHEMBL1201862, “PubChem BioAssay data set” (2004):
Several values for one entry are separate records, joined by “and”; a condition that tells them apart may be missing. Equal values may be shown once.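 Compound exposure: 48 hours, 5 concentrations, 96-well plates. GI50 is the concentration that inhibits growth by half.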 Activity calls are given as the source filed them. No stated cut-off is given here; in the data, active = GI50 up to about 1.1 µM and inactive = higher.

What was measured:
Experiment in all cases: growth of human tumour cells (NCI), 48 h
IGROV-1 = tested on: IGROV-1
Malme-3M = tested on: Malme-3M
RPMI-8226 = tested on: RPMI-8226
OVCAR-8 = tested on: OVCAR-8
SF-539 = tested on: SF-539
SNB-19 = tested on: SNB-19
SK-MEL-2 = tested on: SK-MEL-2
HCT-15 = tested on: HCT-15
HCT-116 = tested on: HCT-116
RXF 393 = tested on: RXF 393
OVCAR-3 = tested on: OVCAR-3
ACHN = tested on: ACHN
K562 = tested on: K562
OVCAR-5 = tested on: OVCAR-5
HOP-92 = tested on: HOP-92
TK-10 = tested on: TK-10
PC-3 = tested on: PC-3
MDA-MB-435 = tested on: MDA-MB-435
DU-145 = tested on: DU-145

Row | SMILES | GI50 (IGROV-1) | GI50 (Malme-3M) | GI50 (RPMI-8226) | GI50 (OVCAR-8) | GI50 (SF-539) | GI50 (SNB-19) | GI50 (SK-MEL-2) | GI50 (HCT-15) [µM] | GI50 (HCT-116) | GI50 (RXF 393) | GI50 (OVCAR-3) | GI50 (ACHN) | GI50 (K562) | GI50 (OVCAR-5) | GI50 (HOP-92) | GI50 (TK-10) | GI50 (PC-3) | GI50 (MDA-MB-435) | GI50 (DU-145)
1 | O=CC(O)C(O)C(O)COc1cc(CO)cc2c1C(=O)c1ccccc1C2=O (stereo unspecified) | > 100 µM (inactive) | 98.9 µM (inactive) | > 100 µM (inactive) | > 100 µM (inactive) | > 100 µM (inactive) | > 100 µM (inactive) | > 95.5 µM (inactive) | > 100 | > 100 µM (inactive) | > 100 µM (inactive) | 76.4 µM (inactive) | > 31.6 µM (inactive) | > 100 µM (inactive) | > 100 µM (inactive) | > 100 µM (inactive) | > 100 µM (inactive) |  |  | 
2 | Cc1noc(C)c1C1=CCCCc2ccccc21 | > 100 µM (inactive) | 97.5 µM (inactive) | 25.9 µM (inactive) | > 100 µM (inactive) | > 100 µM (inactive) | > 100 µM (inactive) | > 100 µM (inactive) | 99.8 | > 100 µM (inactive) | 72.8 µM (inactive) | 79.4 µM (inactive) | 87.9 µM (inactive) | 31.4 µM (inactive) | > 100 µM (inactive) | 26.5 µM (inactive) |  |  |  | 
3 | CCOC(=O)C1Oc2ccc([N+](=O)[O-])cc2C1(C)O (stereo unspecified) | > 100 µM (inactive) | > 100 µM (inactive) | > 100 µM (inactive) | > 100 µM (inactive) | > 100 µM (inactive) | > 100 µM (inactive) | > 100 µM (inactive) | > 100 |  | > 100 µM (inactive) | > 100 µM (inactive) | > 100 µM (inactive) | > 100 µM (inactive) | > 100 µM (inactive) | > 100 µM (inactive) | > 100 µM (inactive) |  |  | 
4 | CN(C)C(=N)NC(N)=S | > 100 µM (inactive) | > 100 µM (inactive) | > 100 µM (inactive) | > 100 µM (inactive) | > 100 µM (inactive) | > 100 µM (inactive) |  | > 100 | > 100 µM (inactive) | > 100 µM (inactive) | > 100 µM (inactive) | > 100 µM (inactive) | > 100 µM (inactive) | > 100 µM (inactive) | > 100 µM (inactive) | > 100 µM (inactive) |  |  | 
5 | COc1cc2c(c(OC)c1OC)-c1ccc(SC)c(=O)cc1C(CO)C2 (stereo unspecified) | 0.169 µM (active) | 0.0811 µM (active) | < 0.01 µM (active) | 0.188 µM (active) | 0.143 µM (active) | 0.802 µM (active) | 0.209 µM (active) | 0.227 | 0.12 µM (active) | 0.104 µM (active) | 0.164 µM (active) | 0.513 µM (active) | 0.0575 µM (active) | 0.431 µM (active) | 0.451 µM (active) |  |  |  | 
6 | Nc1nc(SCc2ccc([N+](=O)[O-])cc2)nc2c1ncn2C1OC(CO)C(O)C1O (stereo unspecified) | > 100 µM (inactive) | > 100 µM (inactive) | > 100 µM (inactive) | > 100 µM (inactive) |  | > 100 µM (inactive) |  | > 100 | > 100 µM (inactive) | > 100 µM (inactive) | > 100 µM (inactive) | > 100 µM (inactive) | > 100 µM (inactive) | > 100 µM (inactive) |  | > 100 µM (inactive) |  |  | 
7 | O=S1(=O)c2ccccc2N=C(c2ccccc2Cl)CC1c1ccc(F)cc1 (stereo unspecified) | 17.4 µM (inactive) | 20 µM (inactive) | 3.4 µM (inactive) | 21.5 µM (inactive) | 20.3 µM (inactive) | 16.8 µM (inactive) | 17.8 µM (inactive) | 18.1 | 10.8 µM (inactive) | 6.68 µM (inactive) | 14.3 µM (inactive) | 18.4 µM (inactive) | 7.62 µM (inactive) | 15.7 µM (inactive) | 17.7 µM (inactive) | 22.5 µM (inactive) |  |  | 
8 | CC(=O)OCC1OC(n2c(=S)n(-c3ccccc3)c(=O)c3cc(Br)ccc32)C(OC(C)=O)C(OC(C)=O)C1OC(C)=O (stereo unspecified) | > 100 µM (inactive) |  | > 100 µM (inactive) | > 100 µM (inactive) | > 100 µM (inactive) | > 100 µM (inactive) and 70.5 µM (inactive) |  | > 100 |  |  | > 100 µM (inactive) | > 100 µM (inactive) | > 100 µM (inactive) | > 100 µM (inactive) |  |  |  |  | 
9 | O=c1[nH]c2c(nc1NC13CC4CC(CC(C4)C1)C3)c(=O)oc1ccccc12 | > 100 µM (inactive) | > 100 µM (inactive) | > 100 µM (inactive) | 32 µM (inactive) | 14.9 µM (inactive) | 62.2 µM (inactive) | > 100 µM (inactive) | > 100 | > 100 µM (inactive) | 46.1 µM (inactive) | > 100 µM (inactive) | > 100 µM (inactive) | > 100 µM (inactive) | > 100 µM (inactive) | > 100 µM (inactive) | > 100 µM (inactive) |  |  | 
10 | CCOC(OC1=C(C#N)CCC1)C(CC)[Se]c1ccccc1 (stereo unspecified) | 24.9 µM (inactive) | 11.4 µM (inactive) | 17.9 µM (inactive) | 23.7 µM (inactive) | 19 µM (inactive) | 48.1 µM (inactive) | 20.9 µM (inactive) | 25.6 | 26.2 µM (inactive) | 20.9 µM (inactive) | 22.1 µM (inactive) | 29.8 µM (inactive) | 32.7 µM (inactive) | 22.7 µM (inactive) | 23.4 µM (inactive) | > 100 µM (inactive) |  |  | 
11 | CCOC(=O)C(=O)C1C(=O)Nc2ccccc21 (stereo unspecified) | > 100 µM (inactive) | > 100 µM (inactive) | > 100 µM (inactive) | > 100 µM (inactive) |  | > 100 µM (inactive) | > 100 µM (inactive) |  | > 100 µM (inactive) | > 100 µM (inactive) | > 100 µM (inactive) | > 100 µM (inactive) | > 100 µM (inactive) | > 100 µM (inactive) | 50.8 µM (inactive) | > 100 µM (inactive) |  |  | 
12 | OB1OCc2ccccc21 [BENZOXABOROLE] | 35.2 µM (inactive) | > 100 µM (inactive) | 18.2 µM (inactive) | 31.1 µM (inactive) | 25.1 µM (inactive) | 60.8 µM (inactive) | 37.2 µM (inactive) | 24.7 | 44.4 µM (inactive) |  | 60.4 µM (inactive) |  | 67.8 µM (inactive) |  |  | 38.9 µM (inactive) | 20 µM (inactive) | 35.9 µM (inactive) | > 100 µM (inactive)
13 | Cc1ccc(S(=O)(=O)NNS(C)(=O)=O)cc1 | > 100 µM (inactive) | > 100 µM (inactive) | > 100 µM (inactive) | > 100 µM (inactive) | > 100 µM (inactive) | > 100 µM (inactive) | > 100 µM (inactive) | > 100 | > 100 µM (inactive) | > 100 µM (inactive) | > 100 µM (inactive) | > 100 µM (inactive) | > 100 µM (inactive) |  |  | > 100 µM (inactive) |  |  | 
14 | CCCCCn1cnc2c1S(=O)(=O)N(C)C(NC(=O)c1ccccc1)=N2 | > 100 µM (inactive) |  | > 100 µM (inactive) | > 100 µM (inactive) | > 100 µM (inactive) | > 100 µM (inactive) | > 100 µM (inactive) | > 100 | > 100 µM (inactive) |  | > 100 µM (inactive) | > 100 µM (inactive) | > 100 µM (inactive) |  | > 100 µM (inactive) | > 100 µM (inactive) |  |  | 
15 | COc1ccc(N2C(=O)c3c(c4[nH]c5ccccc5c4c4ccc(C(C)(C)C)cc34)C2=O)cc1 | > 100 µM (inactive) | 83 µM (inactive) |  | 22.5 µM (inactive) | > 100 µM (inactive) | 54.2 µM (inactive) | 26.2 µM (inactive) | 42.8 | 69.7 µM (inactive) | 45.7 µM (inactive) | 27.2 µM (inactive) | 46.3 µM (inactive) | > 100 µM (inactive) | > 100 µM (inactive) | 14.7 µM (inactive) | 51.4 µM (inactive) |  |  | 
16 | C[n+]1c2ccc(Cl)cc2nc2cc(-c3ccccc3)ccc21 | 10 µM (inactive) | 19.4 µM (inactive) | 1.93 µM (inactive) | 3.67 µM (inactive) | 15.8 µM (inactive) | 5.12 µM (inactive) | 19.8 µM (inactive) | 7.76 | 16.7 µM (inactive) | 26.1 µM (inactive) | 2.03 µM (inactive) | 18.9 µM (inactive) | 7.13 µM (inactive) | 24.1 µM (inactive) |  | 22.8 µM (inactive) | 10.5 µM (inactive) | 1.77 µM (inactive) | 22.5 µM (inactive)
17 | C=CCOC1=C2CC[C@H](O)[C@@]2(C)CCC1=O | > 100 µM (inactive) | > 100 µM (inactive) | > 100 µM (inactive) | > 100 µM (inactive) | > 100 µM (inactive) | > 100 µM (inactive) |  | > 100 | > 100 µM (inactive) | > 100 µM (inactive) | > 100 µM (inactive) | > 100 µM (inactive) |  | > 100 µM (inactive) | > 100 µM (inactive) | > 100 µM (inactive) |  |  | 
18 | CC1=Nn2c(nnc2-c2ccccc2Cl)NC(C)(C)C1 | > 100 µM (inactive) |  | 26.1 µM (inactive) | > 100 µM (inactive) | > 100 µM (inactive) | > 100 µM (inactive) | > 100 µM (inactive) | 51.9 | > 100 µM (inactive) |  |  | > 100 µM (inactive) | 42.9 µM (inactive) | > 100 µM (inactive) | > 100 µM (inactive) | > 100 µM (inactive) |  |  | 
19 | C/C(=N\NC(=O)c1ccccc1O)C1=CNc2ccccc2S1 | 5.92 µM (inactive) | 3.1 µM (inactive) | 4.9 µM (inactive) | 3.7 µM (inactive) | 2.4 µM (inactive) | 5.56 µM (inactive) | 2.15 µM (inactive) |  | 3.66 µM (inactive) |  | 3.01 µM (inactive) | 4.56 µM (inactive) | 3.75 µM (inactive) | 3.18 µM (inactive) |  | 5.57 µM (inactive) |  |  | 
